Data reported in US9951081B1, “Chlorin e6 derivative and pharmaceutically acceptable salt thereof and process for preparing and use of the same” (priority 2016, dated 2018).
Where two headings read alike, the source gives them in different places.

Assays:
[1] = system: human non-small cell lung cancer cell (A549); assay: In vitro darktoxicity and PDT killing effect (CCK-8), A549; format: cell-based; conditions: for PDT anti-cancer activity (in words): light dose of 8 J/cm^2
Excerpt: (§1) Human non-small cell lung cancer cellA549 and mice melanoma cell B16-F10 provided by Cell bank of Shanghai in Chinese Academy of Sciences were selected as cell strains.
(§2) 660 nm semiconductor laser therapeutic equipments manufactured by Baifei biomedical company of Shanghai was selected as a laser light source, with the largest output power of 2 W.
(§3) 1) Cell strains of tumors: culture of human non-small cell lung cancer cell (A549) and mice melanoma cell (B16-F10): frozen cells were taken out of liquid nitrogen, placed in a water bath at […]. […] The medium was renewed once every two days.
(§4) 2) Preparation of reagents: compounds of the present application to be tested and positive control drug Talaporfin were dissolved in a suitable amount of 0.1 M NaOH, adjusted pH to 7.4 by 0.1 M HCl. Normal saline was added to prepare drug stock solution in a suitable concentration.
(§5) 3) Detecting darktoxicity and PDT killing effects to the two tumor cells of compounds to be tested and positive control drug: 100 μL of 5×10^3/mL cell suspension was added into each well of 96-well plate, placed in a incubator at 37° C., 5% CO2 for 24 h. after removing cell medium, fresh mediums containing different concentration of samples were added, opened with three complex holes, and incubated for 24 h at 37° C. and 5% CO2 (volume concentration). After adding fresh medium, no light irradiated (darktoxicity) or 660 nm wavelength laser was used to irradiate (light dose was 8 J/cm^2) (phototoxicity). Cells were incubated for another 24 h. Cell medium containing drugs were removed and fresh medium was added. 200 μL medium containing 10% (v/v) CCK-8 (Dojindo Laboratories, Japan) was added into each well, and incubated for 1.5 h. Microplate reader (Tecan, Switzerland) was used to measure absorbance of each well at a wavelength of 450 nm.

[2] = system: mice melanoma cell (B16-F10); assay: In vitro darktoxicity and PDT killing effect (CCK-8), B16-F10; format: cell-based; conditions: for PDT anti-cancer activity (in words): light dose of 8 J/cm^2
Excerpt: as §1, §2, §3, §4, §5

[3] = 660 nm laser, light dose 8 J/cm^2, read-out: Phototoxicity (IC50)
[4] = no light irradiated, 24 h drug incubation, read-out: Darktoxicity (IC50)

Structure (SMILES)	Ratio of Darktoxicity and Phototoxicity [1]	IC50 ([1]; Homo sapiens, light or radiation study, 660 nm laser, light dose 8 J/cm^2, read-out: Phototoxicity (IC50))	IC50 ([1]; Homo sapiens, light or radiation study, no light irradiated, 24 h drug incubation, read-out: Darktoxicity (IC50))	Ratio of Darktoxicity and Phototoxicity [2]	IC50 ([2]; Mus musculus, light or radiation study, 660 nm laser, light dose 8 J/cm^2, read-out: Phototoxicity (IC50))	IC50 ([2]; Mus musculus, light or radiation study, no light irradiated, 24 h drug incubation, read-out: Darktoxicity (IC50))	IC50 [1, 3]	PDT anti-cancer activity (in words) [1]	IC50 [1, 4]	PDT anti-tumor activity, times that of Talaporfin ([1]; relative to Talaporfin)	ratio of darktoxicity-phototoxicity, times that of Talaporfin ([1]; relative to Talaporfin)	IC50 [2, 3]	PDT anti-cancer activity (in words) [2]	IC50 [2, 4]	PDT anti-tumor activity, times that of Talaporfin ([2]; relative to Talaporfin)	ratio of darktoxicity-phototoxicity, times that of Talaporfin ([2]; relative to Talaporfin)
C=Cc1c(C)c2cc3nc(c(CC(=O)N[C@@H](CC(=O)O)C(=O)O)c4[nH]c(cc5nc(cc1[nH]2)C(C)=C5CC)c(C)c4C(=O)O)[C@@H](CCC(=O)O)[C@@H]3C [Talaporfin, reference compound]	31.21	8.86 µM	277 µM	15.81	10.7 µM	170 µM										
CCCCCCOC(C)c1c(C)c2cc3nc(c(CC(=O)N[C@@H](CC(=O)O)C(=O)O)c4[nH]c(cc5nc(cc1[nH]2)C(C)=C5CC)c(C)c4C(=O)O)[C@@H](CCC(=O)O)[C@@H]3C (stereo partly drawn) [I3, N-[3-(1-n-hexyloxy)ethyl-3-devinylchlorine6-15^2-acyl]-L-aspartic acid]	438.34			215.65			0.65 µM	best	285 µM	13.63 times	14.04 times	0.89 µM	best	192 µM	12.07 times	13.64 times
CCC1=C(C)c2cc3[nH]c(cc4nc(c(CC(=O)N[C@@H](CCCCN)C(=O)O)c5[nH]c(cc1n2)c(C)c5C(=O)O)C(CCC(=O)O)C4C)c(C)c3C(C)OC (stereo partly drawn) [I19, N^α-[3-(1-methoxy)ethyl-3-devinylchlorine6-15^2-acyl]-L-lysine]	>156.25			84.41			1.92 µM		> 300 µM			2.28 µM		192 µM		
CCC1=C(C)c2cc3[nH]c(cc4nc(c(CC(=O)N[C@@H](CC(=O)O)C(=O)O)c5[nH]c(cc1n2)c(C)c5C(=O)O)C(CCC(=O)O)C4C)c(C)c3C(C)OCCCCOC (stereo partly drawn) [I7, N-[3-[1-(4-methoxy)butoxy]ethyl-3-devinylchlorine6-15^2-acyl]-L-aspartic acid]	317.88			159.38			0.86 µM		273 µM			1.04 µM		166 µM		
CCC1=C(C)c2cc3[nH]c(cc4nc(c(CC(=O)N[C@@H](CCC(=O)O)C(=O)O)c5[nH]c(cc1n2)c(C)c5C(=O)O)[C@@H](CCC(=O)O)[C@@H]4C)c(C)c3C(C)OCCOCCOC (stereo partly drawn) [I17, N-[3-[1-(2-(2-methoxy)ethyoxyl)ethyoxyl]ethyl-3-devinylchlorine6-15^2-acyl]-L-glutamic acid]	240.63			111.04			1.1 µM		265 µM			1.52 µM		169 µM		
CCC1=C(C)c2cc3[nH]c(cc4nc(c(CC(=O)N[C@@H](CCCCN)C(=O)O)c5[nH]c(cc1n2)c(C)c5C(=O)O)[C@@H](CCC(=O)O)[C@@H]4C)c(C)c3C(C)OCCOC (stereo partly drawn) [I22, N-[3-[1-(2-methoxy)ethyoxyl]ethyl-3-devinylchlorine6-15^2-acyl]-L-lysine]	175.76			89.24			1.47 µM		258 µM			1.91 µM		170 µM		
CCC1=C(C)c2cc3[nH]c(cc4nc(c(CC(=O)N[C@@H](CCCCN)C(=O)O)c5[nH]c(cc1n2)c(C)c5C(=O)O)[C@@H](CCC(=O)O)[C@@H]4C)c(C)c3C(C)OCCOCCOC (stereo partly drawn) [I26, N-[3-[1-(2-(2-methoxy)ethyoxyl)ethyoxyl]ethyl-3-devinylchlorine6-15^2-acyl]-L-lysine]	201.61			105.20			1.23 µM		248 µM			1.67 µM		176 µM		
CCCOC(C)c1c(C)c2cc3nc(c(CC(=O)N[C@@H](CCC(=O)O)C(=O)O)c4[nH]c(cc5nc(cc1[nH]2)C(C)=C5CC)c(C)c4C(=O)O)[C@@H](CCC(=O)O)[C@@H]3C (stereo partly drawn) [I11, N-[3-(1-n-propoxyl)ethyl-3-devinylchlorine6-15^2-acyl]-L-glutamic acid]							1.12 µM		278 µM					173 µM		
CCCCCCOC(C)c1c(C)c2cc3nc(c(CC(=O)N[C@@H](CCC(=O)O)C(=O)O)c4[nH]c(cc5nc(cc1[nH]2)C(C)=C5CC)c(C)c4C(=O)O)C(CCC(=O)O)C3C (stereo partly drawn) [I12, N-[3-(1-n-hexyloxy)ethyl-3-devinylchlorine6-15^2-acyl]-L-glutamic acid]								best					best			
CCC1=C(C)c2cc3[nH]c(cc4nc(c(CC(=O)N[C@@H](CC(=O)OC(C)(C)C)C(=O)OC(C)(C)C)c5[nH]c(cc1n2)c(C)c5C(=O)O)[C@@H](CCC(=O)O)[C@@H]4C)c(C)c3C(C)OCCOC (stereo partly drawn) [I4, N-[3-[1-(2-methoxy)ethyoxyl]ethyl-3-devinylchlorine6-15^2-acyl]-L-aspartic acid di-tert-butyl ester]	255.18			113.91			1.17 µM		299 µM			1.61 µM		183 µM		
CCCOC(C)c1c(C)c2cc3nc(c(CC(=O)N[C@@H](CCCCN)C(=O)O)c4[nH]c(cc5nc(cc1[nH]2)C(C)=C5CC)c(C)c4C(=O)O)[C@@H](CCC(=O)O)[C@@H]3C (stereo partly drawn) [I20, N-[3-(1-n-propoxyl)ethyl-3-devinylchlorine6-15^2-acyl]-L-lysine]	>225.56			92.87			1.33 µM		> 300 µM			1.75 µM		163 µM		
CCC1=C(C)c2cc3[nH]c(cc4nc(c(CC(=O)N[C@@H](CCC(=O)O)C(=O)O)c5[nH]c(cc1n2)c(C)c5C(=O)O)[C@@H](CCC(=O)O)[C@@H]4C)c(C)c3C(C)OCCOC (stereo partly drawn) [I13, N-[3-[1-(2-methoxy)ethyoxyl]ethyl-3-devinylchlorine6-15^2-acyl]-L-glutamic acid]	213.90			92.93			1.25 µM		267 µM			1.72 µM		160 µM		
CCCCCCOC(C)c1c(C)c2cc3nc(c(CC(=O)N[C@@H](CCCCN)C(=O)O)c4[nH]c(cc5nc(cc1[nH]2)C(C)=C5CC)c(C)c4C(=O)O)C(CCC(=O)O)C3C (stereo partly drawn) [I21, N-[3-(1-n-hexyloxy)ethyl-3-devinylchlorine6-15^2-acyl]-L-lysine]	370.30			171.31			0.79 µM	best	293 µM			1.05 µM	best	180 µM		
CCC1=C(C)c2cc3[nH]c(cc4nc(c(CC(=O)N[C@@H](CC(=O)O)C(=O)O)c5[nH]c(cc1n2)c(C)c5C(=O)O)C(CCC(=O)O)C4C)c(C)c3C(C)OC (stereo partly drawn) [I1, N-[3-(1-methoxy)ethyl-3-devinylchlorine6-15^2-acyl]-L-aspartic acid]	>227.27			102.34			1.32 µM		> 300 µM			2.06 µM		211 µM		
CCCOC(C)c1c(C)c2cc3nc(c(CC(=O)N[C@@H](CC(=O)O)C(=O)O)c4[nH]c(cc5nc(cc1[nH]2)C(C)=C5CC)c(C)c4C(=O)O)[C@@H](CCC(=O)O)[C@@H]3C (stereo partly drawn) [I2, N-[3-(1-n-propoxyl)ethyl-3-devinylchlorine6-15^2-acyl]-L-aspartic acid]	>288.46			125.73			1.04 µM		> 300 µM			1.48 µM		186 µM		
CCC1=C(C)c2cc3[nH]c(cc4nc(c(CC(=O)N[C@@H](CCCCN)C(=O)O)c5[nH]c(cc1n2)c(C)c5C(=O)O)C(CCC(=O)O)C4C)c(C)c3C(C)OCCCCOC (stereo partly drawn) [I25, N-[3-[1-(4-methoxy)butoxy]ethyl-3-devinylchlorine6-15^2-acyl]-L-lysine]	222.06			140.15			1.08 µM		240 µM			1.16 µM		163 µM		
CCC1=C(C)c2cc3[nH]c(cc4nc(c(CC(=O)N[C@@H](CC(=O)O)C(=O)O)c5[nH]c(cc1n2)c(C)c5C(=O)O)[C@@H](CCC(=O)O)[C@@H]4C)c(C)c3C(C)OCCOCCOC (stereo partly drawn) [I8, N-[3-[1-(2-(2-methoxy)ethyoxyl)ethyoxyl]ethyl-3-devinylchlorine6-15^2-acyl]-L-aspartic acid]	283.98			122.07			1.01 µM		287 µM			1.43 µM		175 µM		
